Laboratory results taken from patent US6531485B2, “Prostaglandin agonists” (priority 1997, dated 2003).

What was measured:
[1] = tested on: 293S cells transfected with EP2; assay: Kidney regeneration assay: BMP-7 expression by Northern blot in EP2 293S cells; format: cell-based, human; settings: 10^-6M, RNA at 8, 16 and 24 hours
Experimental: (§1) Methods: 293S and EP2 293S cells are grown in Dulbecco's Modified Egale medium (DMEM, Gibco, BRL; Gaithersburg, Md.). […] Cells are harvested and RNA is extracted at 8, 16 and 24 hours. Northern blot analysis of total […] is carried out by probing the blots with ^32P-labeled BMP-7 probe. The blots are normalized for RNA loading by hybridization with ^32P-labeled 18s ribosomal RNA probe. […] Given the known role of BMP-7 in kidney regeneration and the ability of an prostaglandin agonist to induce BMP-7 expression in 293S kidney cells in a time and receptor specific manner indicates a role for prostaglandin agonist in kidney regeneration.

wild type 293S cells = assay: Kidney regeneration assay: BMP-7 expression by Northern blot in wild type 293S cells; format: cell-based, human; settings: parental 293S cell line, 10^-6M, RNA at 8, 16 and 24 hours
Experimental: as §1

CCCCC[C@H](O)/C=C/[C@H]1[C@H](O)CC(=O)[C@@H]1C/C=C\CCCC(=O)O [PGE2, Prostaglandin E2]
induction of expression of BMP-7 [1]: induce the expression of BMP-7 in the EP2 293S cells in a time dependent manner | induction of expression of BMP-7 (wild type 293S cells): generally not observed
